# US20090306219A1, “TOPICAL USE OF PLANT EXTRACT FOR SKIN DETOXIFICATION” (priority 2008, published 2009)
# Assays:
# glutathione = assay: ELISA quantification of glutathione in keratinocyte culture; type: cell-based; details: 0.0005%, Treatment
# Description: In simple terms, in ELISA an unknown amount of antigen is affixed to a surface, and then a specific antibody is washed over the surface so that it can bind to the antigen. […] This antibody is linked to an enzyme, and in the final step a substance is added that the enzyme can convert to some detectable signal. Thus in the case of fluorescence ELISA, when light is shone upon the sample, any antigen/antibody complexes will fluoresce so that the amount of antigen in the sample can be measured.
# The ELISA kit used in this experiment was purchased from Cayman Chemicals. The experiment was performed as per the manufacturer's directions.
# glyoxalase I = assay: Quantification of Glyoxalase I via immunoassay (western blot) in keratinocyte culture; type: cell-based; details: 0.0005%, keratinocyte culture treated 24 hrs
# Description: The blots were then transferred and probed with a fluorescent anti-body to glyoxalse I, purchased from Santa Cruz Biotechnology. Absorbance was measured and graphed.
smiles,measurement,setting,value
C=CCSSSCC=C [Diallyl Trisulfide],Glut Mean,glutathione; Untreated mean 19,21
same,Glut 1,"glutathione; replicate 1, Untreated 18",20
same,abs 1,glutathione; replicate 1 absorbance,0.033
same,Glut 2,"glutathione; replicate 2, Untreated 20",22
same,abs 2,glutathione; replicate 2 absorbance,0.036
same,Glut 3,"glutathione; replicate 3, Untreated 20",20
same,abs 3,glutathione; replicate 3 absorbance,0.034
same,Inv OD 1,glyoxalase I; replicate 1,91.6
same,OD1,glyoxalase I; replicate 1,125.205
same,Inv OD 2,glyoxalase I; replicate 2,90.7
same,OD 2,glyoxalase I; replicate 2,126.011
same,Inv OD 3,glyoxalase I; replicate 3,71.1
same,OD 3,glyoxalase I; replicate 3,145.641
same,Inv OD 4,glyoxalase I; replicate 4,129.4
same,OD4,glyoxalase I; replicate 4,87.372
same,Inv OD 5,glyoxalase I; replicate 5,93.0
same,OD 5,glyoxalase I; replicate 5,123.78
same,Inv OD 6,glyoxalase I; replicate 6,86.2
same,OD 6,glyoxalase I; replicate 6,130.525
same,Inv OD Mean,glyoxalase I; significantly different from Untreated (mean 66.5),93.7
